Reference: paper PMC10620772, “Design, synthesis, and biological evaluation of new pyrimidine-5-carbonitrile derivatives as novel anti-cancer, dual EGFR^WT/COX-2 inhibitors with docking studies” (RSC Advances, 2023)

Key:
HS 578T = assay: NCI60 antitumor screening; format: cell-based, human; conditions: Homo sapiens; 10 μM single dose; HS 578T (breast cancer); read-out: growth inhibition percent (GI%)
SF-295 = assay: NCI60 antitumor screening; format: cell-based, human; conditions: Homo sapiens; 10 μM single dose; SF-295 (CNS cancer); read-out: growth inhibition percent (GI%)
EKVX = assay: NCI60 antitumor screening; format: cell-based, human; conditions: Homo sapiens; 10 μM single dose; EKVX (non-small cell lung cancer); read-out: growth inhibition percent (GI%)
NCI60 cell lines panel = assay: NCI60 antitumor screening, full panel; format: cell-based, human; conditions: Homo sapiens; 10 μM single dose; mean over NCI60 cell lines; read-out: Mean growth inhibition percent (GI%)
In short: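 Single-concentration screen at 10 μM across the NCI60 panel (leukaemia, NSCLC, colon, CNS, melanoma, ovarian, renal, prostate, breast). Results are expressed as percent growth inhibition (GI%) of treated lines.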

DU-145 = assay: NCI60 antitumor screening; format: cell-based, human; conditions: Homo sapiens, DU-145; read-out: growth inhibition percent (GI%)
UACC-257 = assay: NCI60 antitumor screening; format: cell-based, human; conditions: Homo sapiens; 10 μM single dose; UACC-257 (melanoma); read-out: growth inhibition percent (GI%)
HCT-116 = assay: NCI60 antitumor screening; format: cell-based, human; conditions: Homo sapiens; 10 μM single dose; HCT-116 (colon cancer); read-out: growth inhibition percent (GI%)
OVCAR-3 = assay: NCI60 antitumor screening; format: cell-based, human; conditions: Homo sapiens; 10 μM single dose; OVCAR-3 (ovarian cancer); read-out: growth inhibition percent (GI%)
SK-MEL-2 = assay: NCI60 antitumor screening; format: cell-based, human; conditions: Homo sapiens; 10 μM single dose; SK-MEL-2 (melanoma); read-out: growth inhibition percent (GI%)
KM12 = assay: NCI60 antitumor screening; format: cell-based, human; conditions: Homo sapiens; 10 μM single dose; KM12 (colon cancer); read-out: growth inhibition percent (GI%)
NCI-H23 = assay: NCI60 antitumor screening; format: cell-based, human; conditions: Homo sapiens; 10 μM single dose; NCI-H23 (non-small cell lung cancer); read-out: growth inhibition percent (GI%)
COLO 205 = assay: NCI60 antitumor screening; format: cell-based, human; conditions: Homo sapiens; 10 μM single dose; COLO 205 (colon cancer); read-out: growth inhibition percent (GI%)
PC-3 = assay: NCI60 antitumor screening; format: cell-based, human; conditions: Homo sapiens; 10 μM single dose; PC-3 (prostate cancer); read-out: growth inhibition percent (GI%)
M14 = assay: NCI60 antitumor screening; format: cell-based, human; conditions: Homo sapiens; 10 μM single dose; M14 (melanoma); read-out: growth inhibition percent (GI%)
MOLT-4 = assay: NCI60 antitumor screening; format: cell-based, human; conditions: Homo sapiens; 10 μM single dose; MOLT-4 (leukaemia); read-out: growth inhibition percent (GI%)
SK-OV-3 = assay: NCI60 antitumor screening; format: cell-based, human; conditions: Homo sapiens; 10 μM single dose; SK-OV-3 (ovarian cancer); read-out: growth inhibition percent (GI%)
SN12C = assay: NCI60 antitumor screening; format: cell-based, human; conditions: Homo sapiens; 10 μM single dose; SN12C (renal cancer); read-out: growth inhibition percent (GI%)
SK-MEL-28 = assay: NCI60 antitumor screening; format: cell-based, human; conditions: Homo sapiens; 10 μM single dose; SK-MEL-28 (melanoma); read-out: growth inhibition percent (GI%)
BT-549 = assay: NCI60 antitumor screening; format: cell-based, human; conditions: Homo sapiens; 10 μM single dose; BT-549 (breast cancer); read-out: growth inhibition percent (GI%)
T-47D = assay: NCI60 antitumor screening; format: cell-based, human; conditions: Homo sapiens, T47D; 10 μM single dose; T-47D (breast cancer); read-out: growth inhibition percent (GI%)
HOP-92 = assay: NCI60 antitumor screening; format: cell-based, human; conditions: Homo sapiens; 10 μM single dose; HOP-92 (non-small cell lung cancer); read-out: growth inhibition percent (GI%)

N#Cc1c(-c2ccc(F)cc2)nc(SCc2ccc(F)cc2)nc1N1CCN(c2ccccc2)CC1 [4n, 2-((4-Fluorobenzyl)thio)-4-(4-fluorophenyl)-6-(4-phenylpiperazin-1-yl)pyrimidine-5-carbonitrile]
inhibition at 10 µM (HS 578T): < 10%
inhibition at 10 µM (SF-295): < 10%
inhibition at 10 µM (EKVX): 18.7%
inhibition at 10 µM (NCI60 cell lines panel): < 10%
inhibition at 10 µM (DU-145): < 10%
inhibition at 10 µM (UACC-257): 12.9%
inhibition at 10 µM (HCT-116): 11.8%
inhibition at 10 µM (OVCAR-3): < 10%
inhibition at 10 µM (SK-MEL-2): 10.6%
inhibition at 10 µM (KM12): < 10%
inhibition at 10 µM (NCI-H23): < 10%
inhibition at 10 µM (COLO 205): < 10%
inhibition at 10 µM (PC-3): 25.2%
melting point: 180 to 182 °C
inhibition at 10 µM (M14): 10.1%
inhibition at 10 µM (MOLT-4): 12.4%
inhibition at 10 µM (SK-OV-3): < 10%
inhibition at 10 µM (SN12C): < 10%
inhibition at 10 µM (SK-MEL-28): < 10%
inhibition at 10 µM (BT-549): < 10%
inhibition at 10 µM (T-47D): 24.3%
inhibition at 10 µM (HOP-92): < 10%
